The values below are quoted from earlier work in patent US20070248669A1, “Oral sustained release formulation” (priority 2006, published 2007).

Structures can show the parent of a compound that is named as a salt.

For series [1] the following is noted: compressed tablets, therapeutic dosing.
For series [2] the following is noted: daily multiple dosing regimen, patients under treatment.

In the case of `COc1ccc(C(CN(C)C)C2(O)CCCCC2)cc1` (stereo not drawn) [venlafaxine hydrochloride, 1-[2-(dimethylamino)-1-(4-methoxyphenyl)-ethyl]cyclohexanol], the “time after administration until normal plasma levels are approached” value in series [1] is “about twelve”. For the same compound, in series [2], the patients experiencing nausea result was “about forty five” and the patients with vomiting entry is “about seventeen”.
